In ChEMBL document CHEMBL4396936 (Bioorg Med Chem Lett, 2019):

How the values were obtained:
[1] = target: T1, Indoleamine 2,3-dioxygenase 1 (Homo sapiens, UniProt P14902); test: Inhibition of recombinant IDO1 (unknown origin) expressed in Escherichia coli at 10 uM incubated for 30 mins by methylene blue dye based UV-Visible spectrophotometric method relative to control
Target sequence in this assay (P14902 whole entry, looked up): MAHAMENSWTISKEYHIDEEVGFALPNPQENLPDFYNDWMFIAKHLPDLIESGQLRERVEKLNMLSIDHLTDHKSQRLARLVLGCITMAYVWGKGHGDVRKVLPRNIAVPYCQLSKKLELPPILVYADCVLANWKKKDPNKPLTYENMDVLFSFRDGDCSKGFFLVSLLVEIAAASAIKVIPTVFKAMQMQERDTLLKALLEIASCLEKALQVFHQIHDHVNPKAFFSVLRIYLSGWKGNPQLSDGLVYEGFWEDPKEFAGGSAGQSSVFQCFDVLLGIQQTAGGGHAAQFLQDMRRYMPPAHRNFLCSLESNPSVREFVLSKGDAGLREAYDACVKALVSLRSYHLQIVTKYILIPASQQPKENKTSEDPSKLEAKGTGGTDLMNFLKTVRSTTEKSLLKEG

[2] = target: Indoleamine 2,3-dioxygenase 1 (Homo sapiens, UniProt P14902, C129Y); test: Binding affinity to recombinant ferrous state of IDO1 C129Y mutant (unknown origin) expressed in Escherichia coli assessed as dissociation constant incubated for 30 mins by UV-Visible spectrophotometric method
[3] = target: T1, Indoleamine 2,3-dioxygenase 1; test: Binding affinity to recombinant ferrous state of IDO1 (unknown origin) expressed in Escherichia coli assessed as dissociation constant incubated for 30 mins by UV-Visible spectrophotometric method
Target sequence in this assay (P14902 whole entry): as the sequence (P14902 whole entry, looked up) above

[4] = test system: Indoleamine 2,3-dioxygenase 1 (Homo sapiens), P14902 [C129Y]; test: Inhibition of recombinant IDO1 C129Y mutant (unknown origin) expressed in Escherichia coli at 10 uM incubated for 30 mins by methylene blue dye based UV-Visible spectrophotometric method relative to control
[5] = target: T1, Indoleamine 2,3-dioxygenase 1; test: Binding affinity to recombinant ferric state of IDO1 (unknown origin) expressed in Escherichia coli assessed as dissociation constant incubated for 30 mins by UV-Visible spectrophotometric method
Target sequence in this assay (P14902 whole entry): as the sequence (P14902 whole entry, looked up) above

Chain of Indoleamine 2,3-dioxygenase 1 (Homo sapiens), P14902 [C129Y] (P14902 whole entry C129Y): as the sequence (P14902 whole entry, looked up) above, with C129Y counted along it
Chain of Indoleamine 2,3-dioxygenase 1 (Homo sapiens, UniProt P14902, C129Y) (P14902 whole entry C129Y): as the sequence (P14902 whole entry, looked up) above, with C129Y counted along it

Structure (SMILES)	inhibition [1]	Kd [2]	Kd [3]	inhibition [4]	Kd [5]
c1ccc2[nH]ncc2c1	1%	–	–	–	–
C#Cc1cc(C(O)Cc2ccccc2)c2cn[nH]c2c1 (racemic)	32%	94 µM	1.3 µM	12%	7.4 µM
OC(Cc1ccccc1)c1cc(C2CC2)cc2[nH]ncc12 (racemic)	62%	28 µM	1.2 µM	20%	–
OC(Cc1ccccc1)c1cc(Br)cc2[nH]ncc12 (racemic)	90%	2.2 µM	0.14 µM	23%	0.6 µM
Cc1cc(C(O)Cc2ccccc2)c2cn[nH]c2c1 (racemic)	76%	27 µM	0.47 µM	18%	1.2 µM
C[Si](C)(C)c1cccc2[nH]ncc12	7.2%	–	43 µM	–	150 µM
OC(Cc1ccccc1)c1cccc2[nH]ncc12 (racemic)	13%	66 µM	7.9 µM	14%	31 µM
Cc1cc([Si](C)(C)C)c2cn[nH]c2c1	50%	–	1.7 µM	–	2.5 µM
OC(Cc1ccccc1)c1cc(-c2ccccc2)cc2[nH]ncc12 (racemic)	4%	–	53 µM	14%	–
CCc1cc(C(O)Cc2ccccc2)c2cn[nH]c2c1 (racemic)	70%	44 µM	0.74 µM	18%	1.1 µM
